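Interpolation was linear, between the two tested concentrations surrounding the appropriate level; five concentrations were tested over 48 hours in 96-well plates. GI50 = concentration required for 50% inhibition of growth.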 Active and inactive are the calls of the source. No stated cut-off is given here; in the data, active = GI50 up to about 1.1 µM and inactive = higher.
Tests used:
Test in all cases: DTP human tumour cell line panel, 48 h
K562 = system: K562
M14 = system: M14
ACHN = system: ACHN
HOP-92 = system: HOP-92
OVCAR-4 = system: OVCAR-4
HCT-116 = system: HCT-116
HT-29 = system: HT-29
SK-MEL-28 = system: SK-MEL-28
786-0 = system: 786-0
COLO 205 = system: COLO 205
A549 = system: A549
MOLT-4 = system: MOLT-4
M19-MEL = system: M19-MEL
KM12 = system: KM12
HOP-62 = system: HOP-62
SF-268 = system: SF-268
SK-MEL-5 = system: SK-MEL-5
NCI/ADR-RES = system: NCI/ADR-RES

Row | SMILES | GI50 (K562) | GI50 (M14) | GI50 (ACHN) | GI50 (HOP-92) | GI50 (OVCAR-4) | GI50 (HCT-116) | GI50 (HT-29) | GI50 (SK-MEL-28) | GI50 (786-0) | GI50 (COLO 205) | GI50 (A549) | GI50 (MOLT-4) | GI50 (M19-MEL) | GI50 (KM12) | GI50 (HOP-62) | GI50 (SF-268) | GI50 (SK-MEL-5) | GI50 (NCI/ADR-RES)
1 | C/N=c1\ss/c(=N\C(=S)N(C)C)n1C1CCCCC1 | > 31.6 µM (inactive) | > 10 µM (inactive) | > 31.6 µM (inactive) | > 10 µM (inactive) | > 31.6 µM (inactive) | > 10 µM (inactive) | > 31.6 µM (inactive) | > 31.6 µM (inactive) | > 10 µM (inactive) | > 31.6 µM (inactive) | > 31.6 µM (inactive) | > 31.6 µM (inactive) | > 31.6 µM (inactive) | > 31.6 µM (inactive) | > 100 µM (inactive) | > 31.6 µM (inactive) | > 31.6 µM (inactive) | –
2 | NNC(=O)/C(NC(=O)c1ccccc1)=C(\N)c1ccc(Cl)cc1 | 89.3 µM (inactive) | > 100 µM (inactive) | > 100 µM (inactive) | > 100 µM (inactive) | > 100 µM (inactive) | > 100 µM (inactive) | > 100 µM (inactive) | > 100 µM (inactive) | > 100 µM (inactive) | > 100 µM (inactive) | > 100 µM (inactive) | 28.3 µM (inactive) | > 100 µM (inactive) | > 100 µM (inactive) | > 100 µM (inactive) | > 100 µM (inactive) | > 100 µM (inactive) | –
3 | Cc1c(C(=O)CC(=O)C(=O)NC2C3CC4CC(C3)CC2C4)[n+]([O-])c2ccccc2[n+]1[O-] (stereo unspecified) | > 100 µM (inactive) | > 100 µM (inactive) | > 100 µM (inactive) | > 100 µM (inactive) | > 100 µM (inactive) | > 100 µM (inactive) | > 100 µM (inactive) | > 100 µM (inactive) | > 100 µM (inactive) | > 100 µM (inactive) | > 100 µM (inactive) | > 100 µM (inactive) | 90.2 µM (inactive) | > 100 µM (inactive) | > 100 µM (inactive) | > 100 µM (inactive) | > 100 µM (inactive) | –
4 | CCOC(=O)c1cnc2sc3ccc4ccccc4c3n2c1=O | 37.6 µM (inactive) | 81.1 µM (inactive) | 33.1 µM (inactive) | 28.1 µM (inactive) | 38.9 µM (inactive) | 41.4 µM (inactive) | 87.5 µM (inactive) | 98.6 µM (inactive) | > 100 µM (inactive) | 79.3 µM (inactive) | 53.3 µM (inactive) | 28.1 µM (inactive) | > 100 µM (inactive) | 68.4 µM (inactive) | > 100 µM (inactive) | 92.7 µM (inactive) | 32.1 µM (inactive) | –
5 | c1ccc(C2=NOC3(c4ccccc4)SC4CCCCC4CN23)cc1 (stereo unspecified) | 20.2 µM (inactive) | 21.9 µM (inactive) | 26.2 µM (inactive) | 15.9 µM (inactive) | 45 µM (inactive) | 17.8 µM (inactive) | 28.2 µM (inactive) | 89.1 µM (inactive) | 49.1 µM (inactive) | 27.6 µM (inactive) | 20.5 µM (inactive) | 12.7 µM (inactive) | 30.5 µM (inactive) | 25.5 µM (inactive) | 38.7 µM (inactive) | 22.8 µM (inactive) | 15.2 µM (inactive) | –
6 | O=[N+]([O-])c1ccc2nc(/C(=N\Nc3ccccc3)C(O)c3ccc4c(c3)OCO4)c(O)nc2c1 (stereo unspecified) | 36.4 µM (inactive) | > 100 µM (inactive) | 30.7 µM (inactive) | 11 µM (inactive) | > 100 µM (inactive) | > 100 µM (inactive) | 97.1 µM (inactive) | > 100 µM (inactive) | > 100 µM (inactive) | > 100 µM (inactive) | > 100 µM (inactive) | > 100 µM (inactive) | > 100 µM (inactive) | 41.6 µM (inactive) | > 100 µM (inactive) | > 100 µM (inactive) | > 100 µM (inactive) | –
7 | O=C(Nc1cc(Cl)ccc1Cl)C(=O)C(c1cnc2ccccc2n1)[N+](=O)[O-] (stereo unspecified) | > 100 µM (inactive) | > 100 µM (inactive) | > 100 µM (inactive) | > 100 µM (inactive) | > 100 µM (inactive) | > 100 µM (inactive) | > 100 µM (inactive) | > 100 µM (inactive) | > 100 µM (inactive) | > 100 µM (inactive) | > 100 µM (inactive) | > 100 µM (inactive) | > 100 µM (inactive) | > 100 µM (inactive) | > 100 µM (inactive) | > 100 µM (inactive) | > 100 µM (inactive) | –
8 | Nc1ncnc2c(C3OC(CO)C(O)C3O)scc12 (stereo unspecified) | 0.00262 µM (active) | 0.00586 µM (active) | 0.0877 µM (active) | 0.0117 µM (active) | 0.0468 µM (active) | 0.00885 µM (active) | 0.00458 µM (active) | 0.873 µM (active) | 0.217 µM (active) | 0.026 µM (active) | 0.00721 µM (active) | 0.0767 µM (active) | 0.369 µM (active) | < 0.001 µM (active) | 0.133 µM (active) | 1.77 µM (inactive) | 0.346 µM (active) | –
9 | O=C1C=C2SC3C[C@@]24CC1[N+]1=c2c4c(c(O)c4c2=C(C=N4)CC1)N3 | 2.44 µM (inactive) | – | – | > 100 µM (inactive) | 1.66 µM (inactive) | 1.81 µM (inactive) | – | 1.94 µM (inactive) | – | 1.91 µM (inactive) | 6.17 µM (inactive) | 1.53 µM (inactive) | 1.9 µM (inactive) | 2.13 µM (inactive) | 17.8 µM (inactive) | 1.45 µM (inactive) | 1.88 µM (inactive) | 6.68 µM (inactive)
10 | CC(C)(c1ccc(OC#N)cc1)c1ccc(OC#N)cc1 | > 70 µM (inactive) | > 100 µM (inactive) | > 100 µM (inactive) | > 100 µM (inactive) | > 100 µM (inactive) | > 44.1 µM (inactive) | > 100 µM (inactive) | > 100 µM (inactive) | > 100 µM (inactive) | > 46.6 µM (inactive) | > 100 µM (inactive) | > 100 µM (inactive) | > 82.6 µM (inactive) | > 100 µM (inactive) | > 100 µM (inactive) | > 66.5 µM (inactive) | > 100 µM (inactive) | –
11 | CC1=C2[C@H](c3ccccc3)C3C=CC2(c2ccccc23)N(C(=O)C(c2ccccc2)c2ccccc2)C1=O (stereo partly specified) | > 100 µM (inactive) | > 100 µM (inactive) | > 100 µM (inactive) | > 100 µM (inactive) | > 100 µM (inactive) | > 100 µM (inactive) | > 100 µM (inactive) | > 100 µM (inactive) | > 100 µM (inactive) | > 100 µM (inactive) | > 100 µM (inactive) | > 100 µM (inactive) | > 100 µM (inactive) | > 100 µM (inactive) | > 100 µM (inactive) | > 100 µM (inactive) | > 100 µM (inactive) | –
12 | N#C/N=C(\N)NCCO | > 100 µM (inactive) | > 100 µM (inactive) | > 100 µM (inactive) | > 100 µM (inactive) | > 100 µM (inactive) | > 100 µM (inactive) | > 100 µM (inactive) | > 100 µM (inactive) | 38.1 µM (inactive) | 52.2 µM (inactive) | > 100 µM (inactive) | > 100 µM (inactive) | 40.3 µM (inactive) | > 100 µM (inactive) | > 100 µM (inactive) | > 100 µM (inactive) | > 100 µM (inactive) | –

Source: ChEMBL document CHEMBL1201862, “PubChem BioAssay data set” (2004)
